According to the supplement of paper PMC11208160:

Test: recombinant barcode read abundance after kanamycin selection (control-corrected) (log10(CPM+1)); higher = more efficient recombination; sequences stand for … in AGTGCAGAGAAAATCGGCCAGTTTTCTCTGCCTGCAGTCCGCATGCCGT…AGATTTATGCAGCGGACTGCCTTTCTCCCAAAGTGATAAACCGGACAGTATCATGGACCGGTTTTCCCGGTAATCCGTATTTGCAAGGTTGGTTTCACT; site = the 11-nt target
Summary of the method: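 Recombination efficiency draws on barcodes counted at recombinant junctions in a pooled E. coli screen of targets paired with IS621 bridge RNA target-binding loops. The counts were converted to counts per million, averaged and corrected against the chloramphenicol/ampicillin LB agar control, then reported as log10(CPM+1). Selection plates held chloramphenicol/ampicillin/kanamycin with 0.1 mM IPTG, with two replicates per condition.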
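Note: IS621 recombinase and bridge RNA in Escherichia coli cells.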

| Sequence | recombinant barcode read abundance (log10) |
| --- | --- |
| GTCTCTCCTTGGGTTCTAACCTGTTGCAG (site AAGGGCTCTAA) | 0.0245 |
| GTCTCTCCTTGGGTTCTAACCTGTTGCAG (site GTCTCTCCTCT) | 0.0635 |
| GTCTCTCCTTGGGTTCTAACCTGTTGCCG (site GTCTCTCCTCG) | 0.0734 |
| GTCTCTCCTTGGGTTCTAACCTGTTGCCG (site GTGTCTCCTCG) | 0.0724 |
| GTCTGATCTTGGGTTCTAACCTGTTGCCT (site GTCTAATCTAG) | 0.0854 |
| GTCTGATCTTGGGTTCTAACCTGTTGCCT (site GTCTCATCTAG) | 0.113 |
| GTCTGATCTTGGGTTCTAACCTGTTGCCT (site GTCTGATCTAG) | 0.97 |
| GTCTGATCTTGGGTTCTAACCTGTTGCCT (site GTCTTATCTAG) | 0.186 |
| GTCTGCCCTTGGGTTCTAACCTGTTGCCT (site GACTGCCCTAG) | 0.181 |
| GTCTGCCCTTGGGTTCTAACCTGTTGCCT (site GCCTGCCCTAG) | 0.191 |
| GTCTGCCCTTGGGTTCTAACCTGTTGCCT (site GGCTGCCCTAG) | 0.239 |
| GTCTGCCCTTGGGTTCTAACCTGTTGCCT (site GTCTGCCCTAG) | 1.73 |
| GTCTTAACTTGGGTTCTAACCTGTTGCCG (site GTCTTAACTCG) | 0.338 |
| GTCTTAACTTGGGTTCTAACCTGTTGCCG (site GTCTTGACTTG) | 0.0525 |
| GTGAACTCTTGGGTTCTAACCTGTTGCCT (site GTAAACTCTAG) | 1.56 |
| GTGAACTCTTGGGTTCTAACCTGTTGCCT (site GTCAACTCTAG) | 0.0453 |
| GTGAACTCTTGGGTTCTAACCTGTTGCCT (site GTGAACTCTAG) | 1.85 |
| GTGAACTCTTGGGTTCTAACCTGTTGCCT (site GTTAACTCTAG) | 0.542 |
| GTGAGATCTTGGGTTCTAACCTGTTGCCT (site GTGAGATCTAG) | 1.06 |
| GTGAGATCTTGGGTTCTAACCTGTTGCCT (site GTGGAATCTAG) | 0.079 |
| GTGAGCCCTTGGGTTCTAACCTGTTGCCG (site GTGAGCCCTCG) | 1.01 |
| GTGAGCCCTTGGGTTCTAACCTGTTGCCG (site GTGCGCTCTCG) | 0.0474 |

| Sequence | recombinant barcode read abundance (log10) |
| --- | --- |
| GTGAGTCCTTGGGTTCTAACCTGTTGCGG (site GTAAGTCCTTC) | 0.24 |
| GTGAGTCCTTGGGTTCTAACCTGTTGCGG (site GTGAGTCCTCC) | 2.42 |
| GTGATGTCTTGGGTTCTAACCTGTTGCCT (site GAGATGTCTAG) | 0.701 |
| GTGATGTCTTGGGTTCTAACCTGTTGCCT (site GCGATGTCTAG) | 0.321 |
| GTGATGTCTTGGGTTCTAACCTGTTGCCT (site GGGATGTCTAG) | 0.279 |
| GTGATGTCTTGGGTTCTAACCTGTTGCCT (site GTGATGTCTAG) | 2.17 |
| GTGCACTCTTGGGTTCTAACCTGTTGCGG (site GTGCACACTCC) | 0 |
| GTGCACTCTTGGGTTCTAACCTGTTGCGG (site GTGCACTCTCC) | 2.13 |
| GTGCTAACTTGGGTTCTAACCTGTTGCCA (site ATGCTAACTAG) | 0.0637 |
| GTGCTAACTTGGGTTCTAACCTGTTGCCA (site GTGCTAACTTG) | 0.626 |
| GTGGAAGCTTGGGTTCTAACCTGTTGCCA (site GTGAAAGCTTG) | 0.158 |
| GTGGAAGCTTGGGTTCTAACCTGTTGCCA (site GTGGAAGCTTG) | 0.238 |
| GTGGAGTCTTGGGTTCTAACCTGTTGCCT (site GTAGAGTCTAA) | 0.577 |
| GTGGAGTCTTGGGTTCTAACCTGTTGCCT (site GTGGAGTCTAG) | 2.5 |
| GTGGGAACTTGGGTTCTAACCTGTTGCTT (site GTGGGAACTAA) | 1.97 |
| GTGGGAACTTGGGTTCTAACCTGTTGCTT (site TCCTATCCTTC) | 0.0252 |
| GTGGTACCTTGGGTTCTAACCTGTTGCAT (site ACACGGACTTA) | 0.0235 |
| GTGGTACCTTGGGTTCTAACCTGTTGCAT (site GTGGTACCTAT) | 2.48 |
| GTGGTACCTTGGGTTCTAACCTGTTGCCT (site GTGGTAACTAG) | 0.885 |
| GTGGTACCTTGGGTTCTAACCTGTTGCCT (site GTGGTACCTAG) | 2.77 |
| GTGGTACCTTGGGTTCTAACCTGTTGCCT (site GTGGTAGCTAG) | 0.0565 |
| GTGGTACCTTGGGTTCTAACCTGTTGCCT (site GTGGTATCTAG) | 0.391 |

| Sequence | recombinant barcode read abundance (log10) |
| --- | --- |
| GTGGTTCCTTGGGTTCTAACCTGTTGCCT (site GTGGTTCCTAG) | 1.61 |
| GTGGTTCCTTGGGTTCTAACCTGTTGCCT (site GTTGGTCCTAG) | 0.112 |
| GTGTACCCTTGGGTTCTAACCTGTTGCCT (site GAGTACCCTAG) | 0.64 |
| GTGTACCCTTGGGTTCTAACCTGTTGCCT (site GCGTACCCTAG) | 1.13 |
| GTGTACCCTTGGGTTCTAACCTGTTGCCT (site GGGTACCCTAG) | 0.068 |
| GTGTACCCTTGGGTTCTAACCTGTTGCCT (site GTGTACCCTAG) | 0.918 |
| GTGTACCCTTGGGTTCTAACCTGTTGCGC (site GTGTACCCTAC) | 0.587 |
| GTGTACCCTTGGGTTCTAACCTGTTGCGC (site GTGTACCCTCC) | 0.141 |
| GTGTACCCTTGGGTTCTAACCTGTTGCGC (site GTGTACCCTGC) | 3.13 |
| GTGTACCCTTGGGTTCTAACCTGTTGCGC (site GTGTACCCTTC) | 0.31 |
| GTGTACCCTTGGGTTCTAACCTGTTGCGT (site GTGTACCCTAC) | 3.59 |
| GTGTACCCTTGGGTTCTAACCTGTTGCGT (site GTGTACCCTCC) | 1.66 |
| GTGTACCCTTGGGTTCTAACCTGTTGCGT (site GTGTACCCTGC) | 2.29 |
| GTGTACCCTTGGGTTCTAACCTGTTGCGT (site GTGTACCCTTC) | 0.185 |
| GTGTATACTTGGGTTCTAACCTGTTGCAT (site GTGTATACTAT) | 0.589 |
| GTGTATACTTGGGTTCTAACCTGTTGCAT (site TAACTAGCTTA) | 0.0503 |
| GTGTATCCTTGGGTTCTAACCTGTTGCTT (site GTGCCTCCTAA) | 0.0308 |
| GTGTATCCTTGGGTTCTAACCTGTTGCTT (site GTGTATCCTAA) | 0.664 |
| GTGTCAACTTGGGTTCTAACCTGTTGCCT (site GTGTCAACTAG) | 0.343 |
| GTGTCAACTTGGGTTCTAACCTGTTGCCT (site GTGTCACCTAG) | 0.0106 |
| GTGTCAACTTGGGTTCTAACCTGTTGCCT (site GTGTCAGCTAG) | 0.0423 |
| GTGTCAACTTGGGTTCTAACCTGTTGCCT (site GTGTCATCTAG) | 0.0225 |

| Sequence | recombinant barcode read abundance (log10) |
| --- | --- |
| GTGTCAGCTTGGGTTCTAACCTGTTGCCT (site GTGTCAACTAG) | 0.166 |
| GTGTCAGCTTGGGTTCTAACCTGTTGCCT (site GTGTCACCTAG) | 0.383 |
| GTGTCAGCTTGGGTTCTAACCTGTTGCCT (site GTGTCAGCTAG) | 1.56 |
| GTGTCAGCTTGGGTTCTAACCTGTTGCCT (site GTGTCATCTAG) | 0.02 |
| GTGTCATCTTGGGTTCTAACCTGTTGCCT (site GTGTCAACTAG) | 0.142 |
| GTGTCATCTTGGGTTCTAACCTGTTGCCT (site GTGTCACCTAG) | 0.0183 |
| GTGTCATCTTGGGTTCTAACCTGTTGCCT (site GTGTCAGCTAG) | 0.0185 |
| GTGTCATCTTGGGTTCTAACCTGTTGCCT (site GTGTCATCTAG) | 0.935 |
| GTGTCCTCTTGGGTTCTAACCTGTTGCGT (site CAAAAGGCTCG) | 0.039 |
| GTGTCCTCTTGGGTTCTAACCTGTTGCGT (site GTGTCCTCTAC) | 2.58 |
| GTGTCTCCTTGGGTTCTAACCTGTTGCCG (site GTCTCTCCTCG) | 0.0207 |
| GTGTCTCCTTGGGTTCTAACCTGTTGCCG (site GTGTCTCCTCG) | 0.0325 |
| GTGTGTACTTGGGTTCTAACCTGTTGCCA (site GAGTGAACTTG) | 0.0252 |
| GTGTGTACTTGGGTTCTAACCTGTTGCCA (site GTGTGTACTTG) | 0.488 |
| GTGTGTCCTTGGGTTCTAACCTGTTGCAT (site GTGTATCCTAT) | 0.381 |
| GTGTGTCCTTGGGTTCTAACCTGTTGCAT (site GTGTCTCCTAT) | 0.122 |
| GTGTGTCCTTGGGTTCTAACCTGTTGCAT (site GTGTGTCCTAT) | 1.7 |
| GTGTGTCCTTGGGTTCTAACCTGTTGCAT (site GTGTTTCCTAT) | 0.052 |
| GTGTTTCCTTGGGTTCTAACCTGTTGCAT (site GTGTATCCTAT) | 0.654 |
| GTGTTTCCTTGGGTTCTAACCTGTTGCAT (site GTGTCTCCTAT) | 0.081 |
